Laboratory results: publication PMC7270110, “Labeled oxytocin administered via the intranasal route reaches the brain in rhesus macaques” (Nature Communications, 2020)

Test: Brain tissue concentration of endogenous OT (d0OT) by LC-MS/MS (terminal experiment)
Format: in vivo, rhesus macaques (Macaca mulatta)
Set-up: key: ND: not detected; +: detected but not quantifiable
Conditions: for Concentrations of endogenous brain oxytocin (OT): molarity calculated for extracellular fluid volume; for BRAIN OT concentration (endogenous): LC-MS/MS
Procedure: Monkeys were divided into three groups, each with two monkeys; each group received the following in a terminal study at the 5th week: Group 1 (Monkeys ID# 1 and ID# 5) received 40 IU of d5OT IN, Group 2 received 80 IU of d5OT IN (Monkeys ID# 2 and ID# 4) and Group 3 received 80 IU of d5OT IV (Monkeys ID# 3 and ID# 6). Animals were perfused on average, 140 ± 7 (mean ± SD) min after d5OT administration (range = 135–149 min) (Table 4). Plasma and CSF were drawn just before administration of d5OT, at the midpoint between d5OT administration and perfusion (~60 min post-d5OT administration), and just before perfusion.
Brain tissue distribution of d5OT, as well as the endogenous concentrations of OT (d0OT), were measured in the following 12 brain regions: cerebellum, brainstem, striatum, amygdala, thalamus, visual cortex, insular cortex, hypothalamus, hippocampus, mPFC (Brodmann areas 32,25,24), dPFC (Brodmann areas 46,9,10), and OFC (Brodmann areas 14,13,12) (Tables 1, 2 and 3).
Brain tissue sample preparation: Samples (~1.5 mg per sample) were individually weighed and placed into 12 mm × 75 mm glass tubes containing 1.5 ml ice-cold 1 M acetic acid and 30 µl of OT-d10 internal standard. Tissues were homogenized on ice and the resulting homogenates were poured into individual 15 ml polystyrene tubes. The original glass tube was rinsed with 1 ml acetonitrile, and this rinse was added to the appropriate 15 ml polystyrene tube containing the homogenate. After all homogenizations were complete, 3 ml acetonitrile was added to each tube and extraction proceeded, as described for the plasma and CSF samples.
LC–MS/MS instrument parameters: Microtiter plates were prepared, as described above, and loaded onto a SIL-30ACMP autosampler set at 4 °C (Shimadzu). Forty microliters of each standard, QC or sample were injected onto an ACE Excel 2 C18-PFP 50 mm × 2.1 mm column (Advanced Chromatography Technologies, LTD, Aberdeen, Scotland) at 50 °C using reversed-phase chromatography. Mobile phase A was 0.1% formic acid in water and mobile phase B was 0.1% formic acid in ACN. The LC time gradient was created using two Nexera LC-30AD pumps (Shimadzu) running at 0.5 ml/min. Chromatography for serum and CSF samples began at 10% B and ended at 16% B at 3.6 min. One minute at 60% B was then required to wash the column, and the pumps re-equilibrated at 10% B for an additional 1.7 min (total run time ~6 min). Outside of the 1.55–3.55 min window during which OT eluted, a divert valve sent the LC effluent to waste.
Heated electrospray […] in positive mode, with scheduled multiple reaction monitoring (MRM) on a Shimadzu LCMS-8050, was used for detection of OT. The interface temperature was 270 °C and heat block temperature was 170 °C. Gas was supplied by a Peak Genius 1051 nitrogen and air generator (Peak Scientific, Inchinnan, UK). Nitrogen gas was used for nebulizing (1 L/min) and drying (8.2 L/min), while air was used for heating (7.8 L/min). A capillary B needle was used in the interface. Needle protrusion was set to 1.25 mm and probe distance was set to 1.0 mm; both were determined empirically. Argon (Airgas, Radnor, PA) was used for the collision-induced dissociation at 330 kPa. The MS/MS conditions for OT were optimized using the automated MRM optimization procedure in LabSolutions software (Shimadzu). We collected two MRM transitions each, for d0OT (1007.40 > 723.40 and 1007.40 > 285.30), d5OT (1012.00 > 723.40 and 1012.00 > 290.35), and d10OT (1017.70 > 723.35 and 1017.70 > 295.40); the first transition listed in each case was used for quantitation, while the second was used as a reference ion. Retention times for d0OT, d5OT, and d10OT were 3.290, 3.270, and 3.253 min, respectively.
The sensitivities of each assay within the method were determined by the lowest and highest concentration calibrators in the calibration curve. The lower limit of quantitation (LLOQ) for d0OT was 10 pg/ml (4 pg/col); the LLOQ for d5OT was 100 pg/ml (40 pg/col). […]

Concentrations of endogenous brain oxytocin (OT) (Amygdala, 40 IN, monkey #5 (F)): 2.14e-07 M
Concentrations of endogenous brain oxytocin (OT) (Amygdala, 80 IN, monkey #2 (M)): 3.2e-08 M
Concentrations of endogenous brain oxytocin (OT) (Amygdala, 80 IN, monkey #4 (M)): 1.31e-07 M
Concentrations of endogenous brain oxytocin (OT) (Amygdala, 80 IV, monkey #3 (F)): 2.5e-08 M
Concentrations of endogenous brain oxytocin (OT) (Amygdala, 80 IV, monkey #6 (F)): 4e-08 M
BRAIN OT concentration (endogenous) (Amygdala, after d5OT 40 IU IN, monkey #5 (F), perfused 138 min post-dose): 39.11 pg/mg
BRAIN OT concentration (endogenous) (Amygdala, after d5OT 80 IU IN, monkey #2 (M), perfused 136 min post-dose): 5.82 pg/mg
BRAIN OT concentration (endogenous) (Amygdala, after d5OT 80 IU IN, monkey #4 (M), perfused 135 min post-dose): 23.97 pg/mg
BRAIN OT concentration (endogenous) (Amygdala, after d5OT 80 IU IV, monkey #3 (F), perfused 149 min post-dose): 4.63 pg/mg
BRAIN OT concentration (endogenous) (Amygdala, after d5OT 80 IU IV, monkey #6 (F), perfused 135 min post-dose): 7.26 pg/mg
Concentrations of endogenous brain oxytocin (OT) (Brainstem, 40 IN, monkey #1 (F)): 4e-08 M
Concentrations of endogenous brain oxytocin (OT) (Brainstem, 40 IN, monkey #5 (F)): 5.1e-08 M
Concentrations of endogenous brain oxytocin (OT) (Brainstem, 80 IN, monkey #2 (M)): 2.8e-08 M
Concentrations of endogenous brain oxytocin (OT) (Brainstem, 80 IN, monkey #4 (M)): 1.9e-08 M
Concentrations of endogenous brain oxytocin (OT) (Brainstem, 80 IV, monkey #3 (F)): 6e-08 M
Concentrations of endogenous brain oxytocin (OT) (Brainstem, 80 IV, monkey #6 (F)): 2e-08 M
BRAIN OT concentration (endogenous) (Brainstem, after d5OT 40 IU IN, monkey #1 (F), perfused 148 min post-dose): 7.27 pg/mg
BRAIN OT concentration (endogenous) (Brainstem, after d5OT 40 IU IN, monkey #5 (F), perfused 138 min post-dose): 9.34 pg/mg
BRAIN OT concentration (endogenous) (Brainstem, after d5OT 80 IU IN, monkey #2 (M), perfused 136 min post-dose): 5.11 pg/mg
BRAIN OT concentration (endogenous) (Brainstem, after d5OT 80 IU IN, monkey #4 (M), perfused 135 min post-dose): 3.55 pg/mg
BRAIN OT concentration (endogenous) (Brainstem, after d5OT 80 IU IV, monkey #3 (F), perfused 149 min post-dose): 10.93 pg/mg
BRAIN OT concentration (endogenous) (Brainstem, after d5OT 80 IU IV, monkey #6 (F), perfused 135 min post-dose): 3.58 pg/mg
Concentrations of endogenous brain oxytocin (OT) (Cerebellum, 40 IN, monkey #1 (F)): 1.2e-08 M
Concentrations of endogenous brain oxytocin (OT) (Cerebellum, 40 IN, monkey #5 (F)): <1e-09 M
Concentrations of endogenous brain oxytocin (OT) (Cerebellum, 80 IN, monkey #4 (M)): <1e-09 M
Concentrations of endogenous brain oxytocin (OT) (Cerebellum, 80 IV, monkey #6 (F)): +
BRAIN OT concentration (endogenous) (Cerebellum, after d5OT 40 IU IN, monkey #1 (F), perfused 148 min post-dose): 2.16 pg/mg
BRAIN OT concentration (endogenous) (Cerebellum, after d5OT 40 IU IN, monkey #5 (F), perfused 138 min post-dose): 0.12 pg/mg
BRAIN OT concentration (endogenous) (Cerebellum, after d5OT 80 IU IN, monkey #4 (M), perfused 135 min post-dose): 0.06 pg/mg
BRAIN OT concentration (endogenous) (Cerebellum, after d5OT 80 IU IV, monkey #6 (F), perfused 135 min post-dose): +
Concentrations of endogenous brain oxytocin (OT) (Hippocampus, 40 IN, monkey #1 (F)): 5e-09 M
Concentrations of endogenous brain oxytocin (OT) (Hippocampus, 40 IN, monkey #5 (F)): 5e-09 M
Concentrations of endogenous brain oxytocin (OT) (Hippocampus, 80 IN, monkey #2 (M)): 1.5e-08 M
Concentrations of endogenous brain oxytocin (OT) (Hippocampus, 80 IN, monkey #4 (M)): 1.5e-08 M
Concentrations of endogenous brain oxytocin (OT) (Hippocampus, 80 IV, monkey #3 (F)): 5e-09 M
Concentrations of endogenous brain oxytocin (OT) (Hippocampus, 80 IV, monkey #6 (F)): 5e-09 M
BRAIN OT concentration (endogenous) (Hippocampus, after d5OT 40 IU IN, monkey #1 (F), perfused 148 min post-dose): 0.99 pg/mg
BRAIN OT concentration (endogenous) (Hippocampus, after d5OT 40 IU IN, monkey #5 (F), perfused 138 min post-dose): 0.99 pg/mg
BRAIN OT concentration (endogenous) (Hippocampus, after d5OT 80 IU IN, monkey #2 (M), perfused 136 min post-dose): 2.83 pg/mg
BRAIN OT concentration (endogenous) (Hippocampus, after d5OT 80 IU IV, monkey #3 (F), perfused 149 min post-dose): 0.99 pg/mg
BRAIN OT concentration (endogenous) (Hypothalamus, after d5OT 40 IU IN, monkey #1 (F), perfused 148 min post-dose): 2186.74 pg/mg
BRAIN OT concentration (endogenous) (Hypothalamus, after d5OT 80 IU IN, monkey #2 (M), perfused 136 min post-dose): 943.27 pg/mg
BRAIN OT concentration (endogenous) (Hypothalamus, after d5OT 80 IU IV, monkey #3 (F), perfused 149 min post-dose): 1491.96 pg/mg
Concentrations of endogenous brain oxytocin (OT) (Insular Cortex, 40 IN, monkey #5 (F)): 2e-09 M
Concentrations of endogenous brain oxytocin (OT) (Insular Cortex, 80 IN, monkey #4 (M)): <1e-09 M
Concentrations of endogenous brain oxytocin (OT) (Insular Cortex, 80 IV, monkey #3 (F)): 1e-09 M
SMILES: CC[C@H](C)[C@@H]1NC(=O)[C@H](Cc2ccc(O)cc2)NC(=O)[C@@H](N)CSSC[C@@H](C(=O)N2CCC[C@H]2C(=O)N[C@@H](CC(C)C)C(=O)NCC(N)=O)NC(=O)[C@H](CC(N)=O)NC(=O)[C@H](CCC(N)=O)NC1=O [OT, oxytocin]
